From patent EP0697407B1, “Pyrimidinedione derivatives and antiarrhythmic compositions containing same” (MITSUI TOATSU CHEMICALS, Inc., priority 1994, dated 1996)

Legend:
[1] = system: ventricular muscle; test: Effect on ventricular muscle refractory period (ERP) under ventricular pacing in anesthetized dog; format: in vivo, mongrel adult dog; details: ventricular pacing at 400 msec
Procedure: According to the method described below, the refractory period was measured before and after the intravenous administration of each test compound, and the percent prolongation of refractory period (ERP) was calculated according to the following equation. ERP prolongation (%) =(W - Y)/(Y)x 100 [formula] where W: Refractory period after administration Y: Refractory period before administration
After a mongrel adult dog was anesthetized by the intravenous (i.v.) administration of 30 mg/kg of pentobarbital, the chest was opened on the right side. Then, a set of silver-silver chloride electrodes spaced by 3 mm was sewn on the right ventricle, and […] electrical stimuli (a duration of 4 msec, and a current intensity equal to twice the threshold) were given at an interval of 400 msec. Thereafter, a small amount of alcohol was injected into a sinus artery in order to destroy the pacemaker activity, and the ventricular refractory period (ERP) was measured under ventricular pacing. Specifically, one train comprised a series of stimuli having an interval of 400 msec, and the interval between trains was usually 400 msec. During measurement of the refractory period, this interval was shortened by decrements of 10 msec, and the interval between trains at which the response to the first stimulus of the train disappeared was regarded as the refractory period. These electrical stimuli were given by programmed stimulation using a heart stimulation apparatus (Diamedical Co., Ltd.; DHM-226-3).

[2] = Toxicity test (mortality rate 24 hours after administration); details: mouse, in vivo, ip; 100 mg/kg (i.p.); twenty-four hours after administration; groups of three mice
Procedure: The test compounds were separately administered to mice (ddy strain, male). The administration of each compound was carried out intraperitoneally (i.p.) in a dose of 100 mg/kg. Twenty-four hours after the administration, the mortality rate of the mice (in groups of three) was examined.

[3] = system: right Purkinje fiber; test: Effect on myocardial action potential duration (APD75) in isolated, perfused Purkinje fiber; format: cell-based, mongrel adult dog; details: Canis lupus familiaris, 20 min, 20 minutes' incubation, field stimulus of 1 Hz, 37°C, read-out: T (%), percent prolongation of myocardial action potential duration (APD75); for activation at 1 µM: Dose 1 x 10^-6 M; for activation at 10 µM: Dose 10 x 10^-6 M; for activation at 100 µM: Dose 100 x 10^-6 M
Procedure: After a mongrel adult dog was anesthetized by the intravenous administration of 30 mg/kg of pentobarbital, the heart was excised therefrom. Then, the right Purkinje fiber was isolated in a nutrient fluid (i.e., Tyrode's solution). The isolated right Purkinje fiber was fixed in a constant-temperature bath (20 ml) at 37°C and perfused with Tyrode's solution. In this state, the myocardial action potential duration (APD75) was measured before and after the administration of each test compound. Then, the percent prolongation of myocardial action potential duration (T) after the administration of each test compound was calculated according to the following equation. T(%) =(B - A)/(A)x 100 [formula] where A: APD75 before administration B: APD75 after administration
APD75 was measured as follows: A field stimulus of 1 Hz was given to the right Purkinje fiber, and any change in action potential was detected by a glass microelectrode (10-20 MΩ) penetrated into a Purkinje fiber and monitored on an oscilloscope via an amplifier. The waveform on the oscilloscope was analyzed by means of a computer, and the duration beween the point of action potential generation adn the point of 75% repolarization was defined as APD75. The test compounds shown in Table 2 were separately added to the perfusing nutrient fluid, and after 20 minutes' incubation was recorded. This test was carried out according to the method of Sato et al. [S. Sato, K. Hashimoto; Arzneimittel Forschung, 34(1), 3a, 376-380(1984)].

[4] = Stability test in acid aqueous solution (Solution 1 of the Japanese Pharmacopoeia, pH 1.2), remaining compound by HPLC; format: physicochemical; details: Solution 1 (pH 1.2)
Procedure: In order to confirm the stability of the compounds of the present invention in an acid aqueous solution, stability was tested on the fumarate of 6-[3-[N-[2-(4-methanesulfonylaminophenyl)ethyl]-N-propylamino]propyl]-1,3-dimethyl-2,4(1H,3H)pyrimidinedione (the compound obtained in Example 118; hereinafter referred to as compound A) which is a compound in accordance with the present invention, and 1,3-dimethyl-6-{2-[N-ethyl-3-phenylpropylamino]ethylamino}2,4(1H,3H)-pyrimidinedione (hereinafter referred to as compound B) which is a pyrimidinedione derivative having a substituted amino group at the 6-position of the pyrimidinedione ring as described in European Publication No. 454,498 A2 and was used for purposes of comparison.
Solution 1 (pH 1.2) described in the Japaense Pharmacopoeia was prepared by adding 7.0 ml of hydrochloric acid and water to 2.0 g of sodium chloride so as to give the final volume of 1,000 ml.
Compounds A and B were dissolved in Solution 1 at a concentration of 2 mg/ml and the resulting solutions were stirred at 37°C. Thus, changes with time in the percentages of the remaining compounds A and B were examined by HPLC.

SMILES | mortality at 24 h [2] [%] | activation at 1 µM [3] [%] | activation at 10 µM [3] [%] | activation at 100 µM [3] [%] | further results
CCCN(CCCc1cc(=O)n(C)c(=O)n1C)CCOc1ccc(NS(C)(=O)=O)cc1 [Example 121, 6-[3-[N-n-propyl-N-[2-(4-methanesulfonylaminophenoxy)ethyl]amino]propyl]-1,3-dimethyl-2,4(1H,3H)pyrimidinedione] | 0 | 17 | 68 | 103 | ERP (%), percent prolongation of refractory period ([1]; Dose 0.1 mg/kg i.v.): 6.2%; ERP (%), percent prolongation of refractory period ([1]; Dose 0.3 mg/kg i.v.): 20.0%; ERP (%), percent prolongation of refractory period ([1]; Dose 1.0 mg/kg i.v.): 33.3%
CCCN(CCCc1cc(=O)n(C)c(=O)n1C)CCc1ccc([N+](=O)[O-])cc1 [Example 76, 1,3-dimethyl-6-[3-[N-[2-(4-nitrophenyl)ethyl]-N-propylamino]propyl]-2,4(1H,3H)pyrimidinedione] |  | 52 | 114 |  | 
CCN(CCCc1cc(=O)n(C)c(=O)n1C)CCOc1ccc(F)cc1 [Example 39, 6-[3-[N-ethyl-N-[2-(4-fluorophenoxy)ethyl]amino]propyl]-1,3-dimethyl-2,4(1H,3H)pyrimidinedione] |  | 14 | 53 | 49 | 
CCN(CCCc1cc(=O)n(C)c(=O)n1C)CCOc1ccc([N+](=O)[O-])cc1 [Example 28, 6-[3-[N-ethyl-N-[2-(4-nitrophenoxy)ethyl]amino]propyl]-1,3-dimethyl-2,4(1H,3H)pyrimidinedione] |  | 14 | 35 | 114 | 
CC(=O)c1cc(F)ccc1OCCN(C)CCCc1cc(=O)n(C)c(=O)n1C [Example 60, 6-[3-[N-[2-(2-acetyl-4-fluorophenoxy)ethyl]-N-methylamino]propyl]-1,3-dimethyl-2,4(1H,3H)pyrimidinedione] | 0 | 13 | 34 | 47 | 
CCN(CCCc1cc(=O)n(C)c(=O)n1C)CCc1ccc([N+](=O)[O-])cc1 [Example 84, 6-[3-[N-ethyl-N-[2-(4-nitrophenyl)ethyl]amino]propyl]-1,3-dimethyl-2,4(1H,3H)pyrimidinedione] |  | 23 | 72 | 96 | 
CCN(CCOc1ccc(F)cc1C(C)=O)CCc1cc(=O)n(C)c(=O)n1C [Example 61, 6-[2-[N-[2-(2-acetyl-4-fluorophenoxy)ethyl]-N-ethylamino]ethyl]-1,3-dimethyl-2,4(1H,3H)pyrimidinedione] |  | 3 | 18 | 35 | 
CC(C)N(CCCc1cc(=O)n(C)c(=O)n1C)CCOc1ccc(-n2ccnc2)cc1 [Example 53, 6-[3-[N-[2-(4-(1H-imidazol-1-yl)phenoxy)ethyl]-N-isopropylamino]propyl]-1,3-dimethyl-2,4(1H,3H)pyrimidinedione] | 0 | 8 | 24 | 49 | 
CCN(CCCc1cc(=O)n(C)c(=O)n1C)CCOc1cccc(F)c1 [Example 38, 6-[3-[N-ethyl-N-[2-(3-fluorophenoxy)ethyl]amino]propyl]-1,3-dimethyl-2,4(1H,3H)pyrimidinedione] |  | 6 | 16 | 22 | 
CCCN(CCCc1cc(=O)n(C)c(=O)n1C)CCOc1ccc(C(C)=O)cc1 [Example 47, 6-[3-[N-[2-(4-acetylphenoxy)ethyl]-N-propylamino]propyl]-1,3-dimethyl-2,4(1H,3H)pyrimidinedione] | 0 | 13 | 53 | 107 | 
CC(C)N(CCCc1cc(=O)n(C)c(=O)n1C)CCOc1ccc(NS(C)(=O)=O)cc1 [Example 116, 6-[3-[N-[2-(4-methanesulfonylaminophenoxy)ethyl]-N-isopropylamino]propyl]-1,3-dimethyl-2,4(1H,3H)pyrimidinedione] | 0 | 9 | 43 | 77 | ERP (%), percent prolongation of refractory period ([1]; Dose 0.1 mg/kg i.v.): 6.3%; ERP (%), percent prolongation of refractory period ([1]; Dose 0.3 mg/kg i.v.): 12.5%; ERP (%), percent prolongation of refractory period ([1]; Dose 1.0 mg/kg i.v.): 25.0%
CCCN(CCOc1ccc(NS(C)(=O)=O)cc1)CCc1cc(=O)n(C)c(=O)n1C [Example 126, 6-[2-[N-n-propyl-N-[2-(4-methanesulfonylaminophenoxy)ethyl]amino]ethyl]-1,3-dimethyl-2,4(1H,3H)pyrimidinedione] |  | 14 | 46 | 85 | ERP (%), percent prolongation of refractory period ([1]; Dose 0.3 mg/kg i.v.): 5.9%; ERP (%), percent prolongation of refractory period ([1]; Dose 1.0 mg/kg i.v.): 11.8%
CCN(CCCc1ccc(NS(C)(=O)=O)cc1)CCCc1cc(=O)n(C)c(=O)n1C [Example 138, 6-[3-[N-ethyl-N-[3-(4-methanesulfonylaminophenyl)propyl]amino]propyl]-1,3-dimethyl-2,4(1H,3H)-pyrimidinedione] |  | 6 | 22 | 49 | 
CCN(CCOc1ccc(NS(C)(=O)=O)cc1)CCc1cc(=O)n(C)c(=O)n1C [Example 123, 6-[2-[N-ethyl-N-[2-(4-methanesulfonylaminophenoxy)ethyl]amino]ethyl]-1,3-dimethyl-2,4(1H,3H)-pyrimidinedione] |  | 12 | 41 | 64 | 
CCN(CCCc1ccccc1)CCNc1cc(=O)n(C)c(=O)n1C [compound B, 1,3-dimethyl-6-{2-[N-ethyl-3-phenylpropylamino]ethylamino}2,4(1H,3H)-pyrimidinedione] |  |  |  |  | Percentage of remaining compound ([4]; 0 hr, 2 mg/ml, stirred at 37°C, HPLC): 100%; remaining at 3 h ([4]; jp solution 1, 3 hr, 2 mg/ml, stirred at 37°C, HPLC, read-out: Percentage of remaining compound): 96%; degraded at 6 h ([4]; jp solution 1, 6 hours, 37°C, read-out: decrease after 6 hours' heating): 7%; remaining at 6 h ([4]; jp solution 1, 6 hr, 2 mg/ml, stirred at 37°C, HPLC, read-out: Percentage of remaining compound): 93%
CCN(CCCOc1ccc(NS(C)(=O)=O)cc1)CCCc1cc(=O)n(C)c(=O)n1C [Example 122, 6-[3-[N-ethyl-N-[3-(4-methanesulfonylaminophenoxy)propyl]amino]propyl]-1,3-dimethyl-2,4(1H,3H)-pyrimidinedione] |  | 10 | 14 | 33 | 
